Measurements: US20200263231A1, “Fluorogenic dyes for high sensitivity DNA detection” (LIFE TECHNOLOGIES CORPORATION, priority 2016, published 2020)

Legend:
calf thymus DNA = assay: Fluorescence emission and enhancement of compounds bound to calf thymus DNA; format: binding; details: 0.8 μM compound with 500 ng/ml calf thymus DNA in TE buffer; for Emission Max: excited at 488 nm; for Fluorescence Enhancement: emission area 500-715 nm compared to compound 1, defined as 1000-fold
Description: Compounds 1-65 were prepared and their fluorescence absorption and emission characteristics were measured. Intrinsic fluorescence of the compounds only (without DNA) was negligible. Emission spectra for the compounds bound to dsDNA were obtained by incubating 0.8 μM compound with 500 ng/ml calf thymus DNA in TE buffer (10 mM Tris-HCl, pH 7.5, 1 mM EDTA) in a final volume of 3 ml. Measurements were made using PerkinElmer LS 55 (F-11) Fluorescence spectrometer. Samples were excited at 488 nm and fluorescence emission was measured with emission slit widths of 2.5 nm. Absorption maxima were determined according to standard techniques.
Fluorescence enhancement measurements of the compounds were obtained by incubating 0.8 μM compound with 500 ng/ml calf thymus DNA with compounds at a final concentration of 0.8 μM in TE buffer. Compound 1 was used as an internal standard to control for variability (e.g., in excitation light intensity). The area-under-curve of fluorescence emission spectra from 500 nm to 715 nm was calculated, and compared to that of compound 1, which was defined as having 1000-fold fluorescence enhancement relative to fluorescence of the compound alone.

[1] = UV/VIS absorption spectra; format: physicochemical; details: 10 μM compound in 50 mM potassium phosphate buffer (pH 7.0)
Description: The UV/VIS absorption spectra were obtained with 10 μM compound solution in 50 mM potassium phosphate buffer (pH 7.0) in a final volume of 3 mL. Measurements were carried out using a Lambda 245 spectrophotometer from Perkin Elmer.

| Emission Max (calf thymus DNA) [nm] | Absorbance Max [1] [nm] | SMILES | Fluorescence Enhancement (calf thymus DNA) [fold] |
| --- | --- | --- | --- |
| 527 | 507 | CCN(CC[N+](C)(C)Cc1ccccc1)C1=C/C(=C/c2sc3ccccc3[n+]2C)c2ccccc2N1c1ccccc1.[Br-].[I-] [Compound 32] | 672 |
| 526 | 507 | CCN(CC[N+](C)(C)Cc1cccc(OC)c1)C1=C/C(=C/c2sc3ccccc3[n+]2C)c2ccccc2N1c1ccccc1.[Br-].[I-] [Compound 33] | 652 |
| 521 | 489 | CCCCN(CCC[N+](C)(C)CC)C1=CC(=Cc2sc3ccccc3[n+]2C)c2ccc(OC)cc2N1c1ccccc1.[I-].[I-] [Compound 36] | 1071 |
| 519 | 489 | CCCCN(CCC[N+](C)(C)CCC)C1=CC(=Cc2sc3ccccc3[n+]2C)c2ccc(OC)cc2N1c1ccccc1.[I-].[I-] [Compound 37] | 1089 |
| 520 | 489 | CCCCN(CCC[N+](C)(C)CCO)C1=CC(=Cc2sc3ccccc3[n+]2C)c2ccc(OC)cc2N1c1ccccc1.[I-].[I-] [Compound 38] | 1089 |
| 517 | 490 | CCCCN(CCC[N+](C)(C)Cc1ccccc1)C1=CC(=Cc2sc3ccccc3[n+]2C)c2ccc(OC)cc2N1c1ccccc1.[I-].[I-] [Compound 39] | 1080 |
| 520 | 490 | CCCCN(CCC[N+](C)(C)Cc1cccc(OC)c1)C1=CC(=Cc2sc3ccccc3[n+]2C)c2ccc(OC)cc2N1c1ccccc1.[Br-].[I-] [Compound 40] | 1050 |
| 519 | 494 | CCCN(CCC[N+](C)(C)CC)C1=CC(=Cc2sc3ccccc3[n+]2C)c2ccc(OC)cc2N1c1ccccc1.[I-].[I-] [Compound 43] | 1033 |
| 518 | 494 | CCCN(CCC[N+](C)(C)CCC)C1=CC(=Cc2sc3ccccc3[n+]2C)c2ccc(OC)cc2N1c1ccccc1.[I-].[I-] [Compound 44] | 1101 |
| 517 | 494 | CCCN(CCC[N+](C)(C)CCO)C1=CC(=Cc2sc3ccccc3[n+]2C)c2ccc(OC)cc2N1c1ccccc1.[I-].[I-] [Compound 45] | 1093 |
| 520 | 494 | CCCN(CCC[N+](C)(C)Cc1ccccc1)C1=C/C(=C/c2sc3ccccc3[n+]2C)c2ccc(OC)cc2N1c1ccccc1.[Br-].[I-] [Compound 46] | 931 |
| 518 | 495 | CCCN(CCC[N+](C)(C)Cc1cccc(OC)c1)C1=CC(=Cc2sc3ccccc3[n+]2C)c2ccc(OC)cc2N1c1ccccc1.[Br-].[I-] [Compound 47] | 1038 |
| 519 | 490 | CCN(CCC[N+](C)(C)CC)C1=CC(=Cc2sc3ccccc3[n+]2C)c2ccc(OC)cc2N1c1ccccc1.[I-].[I-] [Compound 50] | 1020 |
| 520 | 490 | CCC[N+](C)(C)CCCN(CC)C1=CC(=Cc2sc3ccccc3[n+]2C)c2ccc(OC)cc2N1c1ccccc1.[I-].[I-] [Compound 51] | 1016 |
| 519 | 490 | CCN(CCC[N+](C)(C)CCO)C1=C/C(=C/c2sc3ccccc3[n+]2C)c2ccc(OC)cc2N1c1ccccc1 [Compound 52] | 1031 |
| 520 | 490 | CCN(CCC[N+](C)(C)Cc1ccccc1)C1=C/C(=C/c2sc3ccccc3[n+]2C)c2ccc(OC)cc2N1c1ccccc1.[Br-].[I-] [Compound 53] | 1011 |
| 517 | 490 | CCN(CCC[N+](C)(C)Cc1cccc(OC)c1)C1=CC(=Cc2sc3ccccc3[n+]2C)c2ccc(OC)cc2N1c1ccccc1.[Br-].[I-] [Compound 54] | 1008 |
| 520 | 496 | CCN(CCN(C)C)C1=C/C(=C/c2sc3ccccc3[n+]2C)c2ccc(OC)cc2N1c1ccccc1.[I-] [Compound 55] | 908 |
| 523 | 499 | CCN(CC[N+](C)(C)C)C1=C/C(=C/c2sc3ccccc3[n+]2C)c2ccc(OC)cc2N1c1ccccc1.[I-].[I-] [Compound 56] | 894 |
| 521 | 496 | CCN(CC[N+](C)(C)CC)C1=C/C(=C/c2sc3ccccc3[n+]2C)c2ccc(OC)cc2N1c1ccccc1.[I-].[I-] [Compound 57] | 877 |
| 521 | 496 | CCC[N+](C)(C)CCN(CC)C1=C/C(=C/c2sc3ccccc3[n+]2C)c2ccc(OC)cc2N1c1ccccc1.[I-].[I-] [Compound 58] | 874 |
| 520 | 498 | CCN(CC[N+](C)(C)CCO)C1=C/C(=C\c2sc3ccccc3[n+]2C)c2ccc(OC)cc2N1c1ccccc1.[I-].[I-] [Compound 59] | 863 |
| 522 | 500 | CCN(CC[N+](C)(C)Cc1ccccc1)C1=C/C(=C/c2sc3ccccc3[n+]2C)c2ccc(OC)cc2N1c1ccccc1.[I-].[I-] [Compound 60] | 878 |
| 540 | 514 | C[n+]1c(/C=C2/C=C(n3ccnc3)N(c3ccccc3)c3ccccc32)sc2ccccc21.[I-] [Compound 61] | 26 |
|  | 519 | C[n+]1ccn(C2=C/C(=C/c3sc4ccccc4[n+]3C)c3ccccc3N2c2ccccc2)c1.[I-].[I-] [Compound 62] | 0.3 |
| 543 | 518 | C[n+]1c(/C=C2/C=C(n3cnc4ccccc43)N(c3ccccc3)c3ccccc32)sc2ccccc21.[Cl-] [Compound 63] | 42 |
| 529 | 527 | CN(C)CCCC1=C/C(=C/c2sc3ccccc3[n+]2C)c2ccccc2N1c1ccccc1 [Compound 64] | 204 |
| 530 | 527 | C[n+]1c(/C=C2/C=C(CCC[N+](C)(C)C)N(c3ccccc3)c3ccccc32)sc2ccccc21 [Compound 65] | 136 |

| SMILES | Emission Max (calf thymus DNA) [nm] | Absorbance Max [1] [nm] | Fluorescence Enhancement (calf thymus DNA) [fold] |
| --- | --- | --- | --- |
| CCN(CCC[N+](C)(C)C)C1=CC(=Cc2sc3ccccc3[n+]2C)c2ccc(OC)cc2N1c1ccccc1.[I-].[I-] [Compound 49] | 520 | 490 | 1035 |
